What all share (assay): greenhouse post-emergence herbicidal test
The test system of one test is ABUTH. The format is in vivo, Abutilon theophrast. Set-up: key to herbicidal activity against ABUTH found: rating on a scale from 0 to 100. The gist of the method: (§1)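 Test plants, sown directly or transplanted a few days earlier, are treated at 1–15 cm height with emulsified or suspended actives in water. Temperatures run 10-25° C or 20-35° C by species; injury is scored 0–100 twenty days after spraying.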

Another test relates to GERDI. The format is in vivo, Geranium dissectum. Set-up: key to herbicidal activity against GERDI found: rating on a scale from 0 to 100. The conditions noted are these: for herbicidal activity against GERDI found: I.1 62.5 g/ha. Summed up:
as §1

The next test has as its system APESV. The format is in vivo, Apera spica-venti. Particulars: post emergence. Set-up: key to herbicidal activity against APESV found: rating on a scale from 0 to 100. How it is done: (§2) The culture containers used were plastic pots containing medium loamy sand with approximately 4.6% of humus and 69.9% sand as substrate. The seeds of the test plants were sown separately for each species.
(§3) For the post-emergence treatment, the test plants were grown to a plant height of from 1 to 15 cm, depending on the plant habit, and only then treated with the active compounds which had been suspended or emulsified in water. To this end, the test plants were either sown directly, and grown in the same containers, or they were first grown separately as seedlings and transplanted into the test containers a few days prior to treatment.
(§4) Depending on the species, the plants were kept at 10-25° C. and 20-35° C., respectively.
(§5) The test period extended over 1 to 3 weeks. During this time, the plants were tended and their response to the individual treatments was evaluated 20 days after treatment except mentioned otherwise.
(§6) Evaluation was carried out using a scale from 0 to 100. 100 means no emergence of the plants, or complete destruction of at least the above-ground parts, and 0 means no damage or normal course of growth.
(§7) The respective stated components A and B, and, if appropriate, C, were formulated as a 10% by weight strength emulsion concentrate and, with addition of the amount of solvent system, introduced into the spray liquor used for applying the active compound. In the examples, the solvent used was water.
(§8) In the examples below, using the method of S. R. Colby (1967) “Calculating synergistic and antagonistic responses of herbicide combinations”, Weeds 15, p. 22 ff., the value E, which is expected if the activity of the individual active compounds is only additive, was calculated. E=X+Y−(X·Y/100)

The next test has as its system KCHSC. Type of test: in vivo, Kochia scoparia. Set-up: key to herbicidal activity against KCHSC found: rating on a scale from 0 to 100. Particulars: for herbicidal activity against KCHSC found: post emergence, B.88 1 g/ha a.i. How it is done:
as §2, §3, §4, §5, §6, §7, §8

In another test the test system is ALOMY. The format is in vivo, Alopecurus myosuroides. Set-up: key to herbicidal activity against ALOMY found: rating on a scale from 0 to 100. The conditions noted are these: for herbicidal activity against ALOMY found: I.1 62.5 g/ha. The gist of the method: as §1
For the next test, the system named is PAPRH. The format is in vivo, Papaver rhoeas. Set-up: key: rating on a scale from 0 to 100. How it is done: as §2, §3, §4, §5, §6, §7, §8
The subject of a further test is ECHCG. Type of test: in vivo, Echinochloa crus-galli. Set-up: key to herbicidal activity against ECHCG found / herbicidal activity against ECHCH found: scale 0 to 100. As to the method:
as §2, §3, §4, §5, §6, §7, §8

The subject of another test is POLCO. The format is in vivo, Polygonum convolvulus. Set-up: key to herbicidal activity against POLCO found: rating on a scale from 0 to 100. Particulars: for herbicidal activity against POLCO found: 20 days after treatment. Summed up: (§9)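 Post-emergence greenhouse test: plants in loamy sand, sprayed at 1–15 cm height with aqueous spray liquor from 10% emulsion concentrates, kept at 10-25 °C or 20-35 °C by species. Damage scored 0–100 (100 = complete destruction), usually 20 days after treatment. Expected additive effect E from Colby: E=X+Y−(X·Y/100).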

For another test, the system named is MATCH. Type of test: in vivo, Matricaria recutita. Set-up: key to herbicidal activity against MATCH found: rating on a scale from 0 to 100. The gist of the method:
as §1

Another test has as its system ERICA. The format is in vivo, Conyza canadensis. Set-up: key to herbicidal activity against ERICA found: rating on a scale from 0 to 100. Particulars: post emergence. The gist of the method: as §1
A further test has as its system VIOAR. Type of test: in vivo, Viola arvensis. The conditions noted are these: Viola arvensis, post-emergence, read-out: herbicidal activity against VIOAR found. Summed up:
as §9

The subject of another test is IPOHE. Type of test: in vivo, Ipomoea hederacea. Set-up: key to herbicidal activity against IPOHE found: rating on a scale from 0 to 100. How it is done: as §2, §3, §4, §5, §6, §7, §8
The next test concerns GALAP. The format is in vivo, Galium aparine. Particulars: Galium aparine, post-emergence, 480 h, read-out: herbicidal activity against GALAP found. Summed up:
as §9

Setting [1] is: post emergence, B.88 1 g/ha a.i.
Where [2] appears, read: post emergence, B.88 2 g/ha a.i.
The mark [3] stands for this setting: I.1 31.25 g/ha, B.88 1 g/ha a.i.
Where [4] appears, read: I.1 31.25 g/ha, B.88 2 g/ha a.i.
Where [5] appears, read: I.1 62.5 g/ha, B.88 1 g/ha a.i.
The mark [6] stands for this setting: I.1 62.5 g/ha, B.88 2 g/ha a.i.
The mark [7] stands for this setting: Geranium dissectum, post-emergence, 480 h, read-out: herbicidal activity against GERDI found.
[8] abbreviates: I.1 62.5 g/ha, B.57 2 g/ha a.i.

Take `C#CCN1C(=O)COc2cc(F)c(N3C(=O)C4=C(CCCC4)C3=O)cc21` [B.88, flumioxazin]: the “herbicidal activity against ABUTH found” value with ABUTH (post emergence, I.1 31.25 g/ha, B.88 1 g/ha a.i.) stood at 90. Moreover, the “herbicidal activity against GERDI found” value in the test with GERDI (setting [1]) and in the test with GERDI (setting [2]) was 70 throughout. Besides, the “herbicidal activity against APESV found” value is 25 with APESV (I.1 15.62 g/ha, B.88 1 g/ha a.i.); 25 in the test with APESV (setting [3]); 65 with APESV (setting [4]); 25 in the test with APESV (setting [5]); 65 in the test on APESV (setting [6]). Further, the “herbicidal activity against KCHSC found” value with KCHSC (I.1 15.62 g/ha), with KCHSC (I.1 31.25 g/ha) and with KCHSC (I.1 62.5 g/ha) was 85 throughout. For the same compound, the “herbicidal activity against ALOMY found” value worked out at 0 with ALOMY (setting [1]) and 20 in the test with ALOMY (setting [2]). Besides, the “herbicidal activity against PAPRH found” value in the test with PAPRH (I.1 15.62 g/ha, B.88 2 g/ha a.i.) is 75; in the test on PAPRH (setting [3]) it was 25; in the test on PAPRH (setting [4]), 75; with PAPRH (setting [5]) it was 25; in the test with PAPRH (setting [6]), 75.
Regarding `CSc1nnc(C(C)(C)C)c(=O)n1N` [B.79, metribuzin], the “herbicidal activity against ECHCG found” value in the test on ECHCG (post emergence, a.i. g/ha: I.1 62.5, B.79 25, 20 days after treatment) was 20%. In addition, the “herbicidal activity against POLCO found” value is given as 20% in the test on POLCO (post emergence, a.i. g/ha: I.1 20.8, B.79 25) and 20% with POLCO (post emergence, a.i. g/ha: I.1 62.5, B.79 25). In addition, the “herbicidal activity against MATCH found” value with MATCH (post emergence, a.i. g/ha: I.1 20.8, B.79 25, 20 days after treatment) was determined as 65%.
`CCS(=O)(=O)c1nc2ccccn2c1S(=O)(=O)NC(=O)Nc1nc(OC)cc(OC)n1` [B.60, sulfosulfuron]: the pest or weed control at 3 g/ha in the test on APESV (Apera spica-venti, post-emergence, 480 h, 3 g/ha a.i., read-out: herbicidal activity against APESV found) worked out at 60%; in the test with ALOMY (Alopecurus myosuroides, post-emergence, 480 h, post emergence, 3 g/ha a.i., read-out: herbicidal activity against ALOMY found), 60%; with ERICA (Erigeron canadensis, post-emergence, 480 h, 3 g/ha a.i., read-out: herbicidal activity against ERICA found), 75%; in the test on POLCO (Fallopia convolvulus, post-emergence, 480 h, post emergence, 3 g/ha a.i., read-out: herbicidal activity against POLCO found) it was 90%; in the test with VIOAR (post emergence, 3 g/ha a.i.) it was 65%. The “herbicidal activity against PAPRH found” value with PAPRH (3 g/ha a.i.) was 90.
`COC(=O)c1c(Cl)nn(C)c1S(=O)(=O)NC(=O)Nc1nc(OC)cc(OC)n1` [halosulfuron-methyl]: the pest or weed control at 5 g/ha in the test with ECHCG (Echinochloa crus-galli, post-emergence, 480 h, read-out: herbicidal activity against ECHCG found) stood at 45%; with ALOMY (Alopecurus myosuroides, post-emergence, 480 h, read-out: herbicidal activity against ALOMY found), 10%.
Turning to `CCS(=O)(=O)c1cccnc1S(=O)(=O)NC(=O)Nc1nc(OC)cc(OC)n1` [B.59, rimsulfuron], the pest or weed control at 0.5 g/ha is 75% in the test on GERDI (Geranium dissectum, post-emergence, 480 h, post emergence, 0.5 g/ha a.i., read-out: herbicidal activity against GERDI found); 65% in the test with ERICA (Erigeron canadensis, post-emergence, 480 h, 0.5 g/ha a.i., read-out: herbicidal activity against ERICA found); 90% in the test with IPOHE (Ipomoea hederacea, post-emergence, 480 h, post emergence, 0.5 g/ha a.i., read-out: herbicidal activity against IPOHE found); 75% with MATCH (Matricaria chamomilla, post-emergence, 480 h, post emergence, 0.5 g/ha a.i., read-out: herbicidal activity against MATCH found). In addition, in the test on PAPRH (0.5 g/ha a.i.), the “herbicidal activity against PAPRH found” value came out at 65.
In the case of `CP(=O)(O)CCC(N)C(=O)O` (stereo not drawn) [B.120, glufosinate-ammonium], the pest or weed control at 125 g/ha in the test with ABUTH (Abutilon theophrasti, post-emergence, 480 h, read-out: herbicidal activity against ABUTH found) was found to be 70%; in the test on GERDI (setting [7]) it was 90%; in the test on GALAP, 80%; with POLCO (Fallopia convolvulus, post-emergence, 480 h, read-out: herbicidal activity against POLCO found) it was 65%; in the test on VIOAR, 15%. In addition, the pest or weed control at 62.5 g/ha in the test on GERDI (setting [7]) was found to be 40%; with KCHSC (Bassia scoparia, post-emergence, 480 h, read-out: herbicidal activity against KCHSC found), 45%; in the test with IPOHE (Ipomoea hederacea, post-emergence, 480 h, read-out: herbicidal activity against IPOHE found), 80%; with MATCH (Matricaria chamomilla, post-emergence, 480 h, read-out: herbicidal activity against MATCH found), 55%. The “herbicidal activity against PAPRH found” value with PAPRH (62.5 g/ha a.i.) was determined as 30.
With `COc1cc(OC)n2nc(NS(=O)(=O)c3c(C(F)(F)F)ccnc3OC)nc2n1` [B.57, pyroxsulam], the “herbicidal activity against ERICA found” value with ERICA (setting [8]) was 75. Moreover, the “herbicidal activity against PAPRH found” value in the test with PAPRH (setting [8]) amounted to 0. Further, the “herbicidal activity against IPOHE found” value in the test with IPOHE (post emergence, I.1 62.5 g/ha, B.57 1 g/ha a.i.) amounted to 80.

The values above are taken from patent US10881110B2, “Herbicidal compositions comprising isoxazolo[5,4-b]pyridines” (BASF SE, priority 2014, dated 2021).
